From the supplement of paper PMC10307832

Columns and labels:
Assay in all cases: relative viability (nuclei count vs DMSO), 5 days (fraction); higher = more cells survive
NCI-H1623 = tested on: NCI-H1623
Outline: (§1)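 A single step with final 0.05% Triton X-100, 1% formaldehyde and 1 ug/ml Hoechst fixed the cells and stained nuclei 5 days after treatment. Lung cancer cell lines in 1536-well plates had been treated by pin tool the day after seeding with one drug alone or a fixed anchor-drug dose plus five library-drug doses (not always all listed) in √10 steps, and nuclei were counted on 4× images. Relative viability is the ratio of nuclei in treated wells to nuclei in vehicle wells, taken as the median of duplicate plates.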

NCI-H2009 = tested on: NCI-H2009
Outline: as §1

A549 = tested on: A549
Outline: as §1

NCI-H460 = tested on: NCI-H460
Outline: as §1

Calu-6 = tested on: Calu-6
Outline: as §1

NCI-H1703 = tested on: NCI-H1703
Outline: as §1

EBC-1 = tested on: EBC-1
Outline: as §1

IA-LM = tested on: IA-LM
Outline: as §1

NCI-H1299 = tested on: NCI-H1299
Outline: as §1

NCI-H661 = tested on: NCI-H661
Outline: as §1

NCI-H1648 = tested on: NCI-H1648
Outline: as §1

NCI-H522 = tested on: NCI-H522
Outline: as §1

SMILES: Oc1nc(-c2ccc(C(F)(F)F)cc2)nc2c1CSCC2 [XAV939] + COc1cc2c(Oc3ccc(NC(=O)C4(C(=O)Nc5ccc(F)cc5)CC4)cc3F)ccnc2cc1OCCCN1CCOCC1 [Foretinib] (partner 0.25 µM)
- relative viability (NCI-H1623; first compound 0.08 µM): 0.826
- relative viability (NCI-H1623; first compound 0.253 µM): 0.75
- relative viability (NCI-H1623; first compound 0.8 µM): 0.703
- relative viability (NCI-H1623; first compound 2.53 µM): 0.677
- relative viability (NCI-H2009; first compound 0.08 µM): 1.32
- relative viability (NCI-H2009; first compound 0.253 µM): 1.21
- relative viability (NCI-H2009; first compound 0.8 µM): 1.18
- relative viability (NCI-H2009; first compound 2.53 µM): 1.16
- relative viability (A549; first compound 0.08 µM): 0.992
- relative viability (A549; first compound 0.8 µM): 0.883
- relative viability (A549; first compound 2.53 µM): 0.9
- relative viability (NCI-H460; first compound 0.08 µM): 1.01
- relative viability (NCI-H460; first compound 0.253 µM): 0.926
- relative viability (NCI-H460; first compound 0.8 µM): 0.999
- relative viability (NCI-H460; first compound 2.53 µM): 0.922
- relative viability (Calu-6; first compound 0.08 µM): 0.88
- relative viability (Calu-6; first compound 0.253 µM): 0.704
- relative viability (Calu-6; first compound 0.8 µM): 0.776
- relative viability (Calu-6; first compound 2.53 µM): 0.819
- relative viability (NCI-H1703; first compound 0.08 µM): 0.348
- relative viability (NCI-H1703; first compound 0.253 µM): 0.377
- relative viability (NCI-H1703; first compound 0.8 µM): 0.416
- relative viability (NCI-H1703; first compound 2.53 µM): 0.374
- relative viability (EBC-1; first compound 0.08 µM): 0.108
- relative viability (EBC-1; first compound 0.253 µM): 0.113
- relative viability (EBC-1; first compound 0.8 µM): 0.106
- relative viability (EBC-1; first compound 2.53 µM): 0.0948
- relative viability (IA-LM; first compound 0.08 µM): 1.29
- relative viability (IA-LM; first compound 0.253 µM): 0.968
- relative viability (IA-LM; first compound 0.8 µM): 1.09
- relative viability (IA-LM; first compound 2.53 µM): 0.729
- relative viability (NCI-H1299; first compound 0.08 µM): 1.13
- relative viability (NCI-H1299; first compound 0.253 µM): 1.11
- relative viability (NCI-H1299; first compound 0.8 µM): 1.07
- relative viability (NCI-H1299; first compound 2.53 µM): 1.08
- relative viability (NCI-H661; first compound 0.08 µM): 1.01
- relative viability (NCI-H661; first compound 0.253 µM): 0.991
- relative viability (NCI-H661; first compound 0.8 µM): 0.993
- relative viability (NCI-H661; first compound 2.53 µM): 0.929

SMILES: C=C1C(=O)O[C@@H](CCCCCCCC)[C@@H]1C(=O)O [C-75] + Cc1cc(Nc2cc(N3CCN(C)CC3)nc(Sc3ccc(NC(=O)C4CC4)cc3)n2)n[nH]1 [Tozasertib] (partner 0.1 µM)
- relative viability (NCI-H1623; first compound 0.08 µM): 0.471
- relative viability (NCI-H1623; first compound 0.253 µM): 0.417
- relative viability (NCI-H1623; first compound 0.8 µM): 0.477
- relative viability (NCI-H1623; first compound 2.53 µM): 0.419
- relative viability (NCI-H1623; first compound 8 µM): 0.461
- relative viability (NCI-H2009; first compound 0.08 µM): 0.724
- relative viability (NCI-H2009; first compound 0.253 µM): 0.743
- relative viability (NCI-H2009; first compound 0.8 µM): 0.743
- relative viability (NCI-H2009; first compound 2.53 µM): 0.707
- relative viability (NCI-H2009; first compound 8 µM): 0.691
- relative viability (NCI-H1648; first compound 0.08 µM): 0.387
- relative viability (NCI-H1648; first compound 0.253 µM): 1.26
- relative viability (NCI-H1648; first compound 0.8 µM): 0.465
- relative viability (NCI-H1648; first compound 8 µM): 0.468
- relative viability (NCI-H460; first compound 0.08 µM): 0.405
- relative viability (NCI-H460; first compound 0.253 µM): 0.798
- relative viability (NCI-H460; first compound 0.8 µM): 0.391
- relative viability (NCI-H460; first compound 2.53 µM): 0.657
- relative viability (NCI-H460; first compound 8 µM): 0.449
- relative viability (NCI-H522; first compound 0.08 µM): 0.585
- relative viability (NCI-H522; first compound 0.253 µM): 0.598
- relative viability (NCI-H522; first compound 0.8 µM): 0.489
- relative viability (NCI-H522; first compound 8 µM): 0.497
- relative viability (NCI-H661; first compound 0.08 µM): 0.355
- relative viability (NCI-H661; first compound 0.253 µM): 0.347
- relative viability (NCI-H661; first compound 0.8 µM): 0.334
- relative viability (NCI-H661; first compound 2.53 µM): 0.288
- relative viability (NCI-H661; first compound 8 µM): 0.339

SMILES: C=C1C(=O)O[C@@H](CCCCCCCC)[C@@H]1C(=O)O [C-75] + COc1cc2c(Oc3ccc(NC(=O)C4(C(=O)Nc5ccc(F)cc5)CC4)cc3F)ccnc2cc1OCCCN1CCOCC1 [Foretinib] (partner 0.25 µM)
- relative viability (NCI-H1623; first compound 0.08 µM): 0.861
- relative viability (NCI-H1623; first compound 0.253 µM): 1.09
- relative viability (NCI-H1623; first compound 0.8 µM): 0.747
- relative viability (NCI-H1623; first compound 2.53 µM): 0.686
- relative viability (NCI-H1623; first compound 8 µM): 0.993
- relative viability (NCI-H2009; first compound 0.08 µM): 1.21
- relative viability (NCI-H2009; first compound 0.253 µM): 1.2
- relative viability (NCI-H2009; first compound 0.8 µM): 1.12
- relative viability (NCI-H2009; first compound 2.53 µM): 1.13
- relative viability (NCI-H2009; first compound 8 µM): 1.04
- relative viability (A549; first compound 0.08 µM): 0.946
- relative viability (A549; first compound 0.253 µM): 0.977
- relative viability (A549; first compound 0.8 µM): 1.01
- relative viability (A549; first compound 8 µM): 0.869
- relative viability (NCI-H460; first compound 0.08 µM): 1.01
- relative viability (NCI-H460; first compound 0.253 µM): 1.09
- relative viability (NCI-H460; first compound 0.8 µM): 0.891
- relative viability (NCI-H460; first compound 8 µM): 0.977
- relative viability (Calu-6; first compound 0.08 µM): 0.875
- relative viability (Calu-6; first compound 0.253 µM): 0.914
- relative viability (Calu-6; first compound 0.8 µM): 0.81
- relative viability (Calu-6; first compound 2.53 µM): 0.634
- relative viability (Calu-6; first compound 8 µM): 0.907
- relative viability (NCI-H1703; first compound 0.08 µM): 0.399
- relative viability (NCI-H1703; first compound 0.253 µM): 0.334
- relative viability (NCI-H1703; first compound 0.8 µM): 0.325
- relative viability (NCI-H1703; first compound 2.53 µM): 0.355
- relative viability (NCI-H1703; first compound 8 µM): 0.388
- relative viability (EBC-1; first compound 0.08 µM): 0.101
- relative viability (EBC-1; first compound 0.253 µM): 0.11
- relative viability (EBC-1; first compound 0.8 µM): 0.107
- relative viability (EBC-1; first compound 8 µM): 0.0983
- relative viability (IA-LM; first compound 0.08 µM): 1.14
- relative viability (IA-LM; first compound 0.253 µM): 1.38
- relative viability (IA-LM; first compound 0.8 µM): 1.02
- relative viability (IA-LM; first compound 2.53 µM): 1.25
- relative viability (IA-LM; first compound 8 µM): 1.01
- relative viability (NCI-H1299; first compound 0.08 µM): 1.12
- relative viability (NCI-H1299; first compound 0.253 µM): 1.03
- relative viability (NCI-H1299; first compound 0.8 µM): 1.04
- relative viability (NCI-H1299; first compound 2.53 µM): 1.04
- relative viability (NCI-H1299; first compound 8 µM): 1.11
- relative viability (NCI-H661; first compound 0.08 µM): 1.06
- relative viability (NCI-H661; first compound 0.253 µM): 1.01
- relative viability (NCI-H661; first compound 0.8 µM): 0.998
- relative viability (NCI-H661; first compound 2.53 µM): 0.901
- relative viability (NCI-H661; first compound 8 µM): 0.896
